For this assay, the target named is Transitional endoplasmic reticulum ATPase (Mus musculus, UniProt Q01853). As to the kind of experiment: Inhibition Assay: Mouse VCP cDNA was added with a DNA sequence corresponding to histidine tag at the amino-terminal, subcloned into a baculovirus vector pVL1392 (BD Bioscience), and expressed in Sf-9 insect cells. The protein was purified with a nickel column (GE Healthcare). The concentration of the protein was adjusted to 0.25-0.5 ug/ml and the protein was stored in a solution containing 50 mM TrisCl pH 8.0, 5 mM EDTA, 10% glycerol, and 15 mM DTT. The ATPase activity was determined as follows. 500 ng of the purified VCP was mixed with 100 uM [gamma-32P]ATP (18.5 GBq/mmol) and the test substance in 20 uL of ATPase buffer (20 mM HEPES (pH7.4), 50 mM KCl, 5 mM MgCl2, 15 mM DTT), and incubated at 37° C. for 10 minutes.The enzyme reaction was stopped with addition of 200 uL of an ice-cold solution containing 7% TCA and 1 mM K2HPO4. 50ul of a solution containing 3.75% ammonium molybdate and 0.02M tungstate silicic/3 NH2SO4 was added, followed by 300 uL of […].
Sequence of Transitional endoplasmic reticulum ATPase (Q01853 whole entry): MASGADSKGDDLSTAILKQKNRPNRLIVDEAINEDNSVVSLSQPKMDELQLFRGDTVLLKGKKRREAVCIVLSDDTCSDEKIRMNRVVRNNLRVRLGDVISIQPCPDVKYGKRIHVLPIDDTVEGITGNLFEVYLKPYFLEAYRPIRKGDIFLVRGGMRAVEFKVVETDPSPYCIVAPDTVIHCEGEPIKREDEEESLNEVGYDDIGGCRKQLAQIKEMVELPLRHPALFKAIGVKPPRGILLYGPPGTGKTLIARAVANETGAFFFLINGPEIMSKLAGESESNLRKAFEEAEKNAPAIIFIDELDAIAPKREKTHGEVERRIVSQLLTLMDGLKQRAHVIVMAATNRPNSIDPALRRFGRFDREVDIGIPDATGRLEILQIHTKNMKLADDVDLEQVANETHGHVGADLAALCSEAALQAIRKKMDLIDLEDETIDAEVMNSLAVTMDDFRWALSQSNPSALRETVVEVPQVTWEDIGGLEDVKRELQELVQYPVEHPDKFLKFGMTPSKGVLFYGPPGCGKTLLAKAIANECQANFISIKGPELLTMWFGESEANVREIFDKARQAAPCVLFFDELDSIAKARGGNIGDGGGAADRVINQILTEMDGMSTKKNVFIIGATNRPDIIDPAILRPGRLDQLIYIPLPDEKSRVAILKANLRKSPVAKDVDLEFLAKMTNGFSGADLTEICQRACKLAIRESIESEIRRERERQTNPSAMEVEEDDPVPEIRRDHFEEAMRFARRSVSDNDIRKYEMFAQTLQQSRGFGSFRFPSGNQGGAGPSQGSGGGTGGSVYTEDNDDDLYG

Each structure is given as a SMILES string.

As for `CC(=O)c1ccc(-c2ccc(/N=N/c3cc(S(=O)(=O)O)c4ccccc4c3N)cn2)cc1`, the IC50 – broadly, the concentration that inhibits the measured activity by half – came to 136 nM.

Regarding `Nc1c(/N=N/c2ccc(-c3cc(C(F)(F)F)cc(C(F)(F)F)c3)nc2)cc(S(=O)(=O)O)c2ccccc12`, the midpoint of inhibition, the IC50, lay at 2750 nM.

(Values after ChEMBL document CHEMBL3886397, “Agent for treatment of eye diseases” (2015).)
